{"source": "patent US20100119613A1", "about": "“PROCESS TO ACTIVATE EXTRACTS DERIVED FROM LIVING ORGANISMS USING LONG WAVE UV IRRADIATION AND COMPOSITIONS COMPRISING SAID ACTIVATED EXTRACT” (Medizinische Universitat Wien, priority 2007, published 2010)", "key": {"HO-1": {"tested_on": "HO-1", "details": "literature (Ishikawa 1997); cited from earlier work"}, "Heme Oxygenase 1 (HO-1)": {"tested_on": "Heme Oxygenase 1 (HO-1)", "test": "HO-1 mRNA expression in dermal fibroblasts (qPCR)", "assay_type": "cell-based, human", "details": "for HO-1 mRNA expression relative to non-treated control cells: dermal fibroblasts; for Effect on OxPAPC-mediated HO-1 induction: fibroblasts incubated with the ROS scavenger prior to exposure to OxPAPC", "method": "Neonatal Human Epidermal Keratinocytes (KC) derived from foreskin are obtained from Clonetics (San Diego, Calif.). Keratinocytes are cultured in keratinocyte growth medium (KGM) up to the fifth passage. Human neonatal skin fibroblasts (FB) are obtained from Cascade Biologics (Portland, Oreg.) and grown in Dulbecco's modified Eagle's medium, Gibco (Gaithersburg, Md.) supplemented with 10% fetal calf serum (FCS) and penicillin/streptomycin (1000 U per ml, Gibco) to sub-confluence.\nRNA is isolated using Trizol reagent (Invitrogen). Nine hundred ng of total RNA are reverse-transcribed with murine leukemia virus reverse transcriptase (MuLV, Applied Biosystems, Foster City, Calif.) and oligo(dT) primers. The following forward (F) and reverse (R) primers are used: HO-1: F, 5′-[…]-3′; R, 5′-[…]-3′; B2M; F 5′-[…]-3′R,5′-[…]-3′ qPCR is performed using LightCycler technology and the Fast Start SYBR Green I kit (both Roche Applied Science, Basel, Switzerland). In all assays, cDNA is amplified using a standardized program (10-min denaturing step; 55 cycles of 5 s at 95° C., […], and 15 s at 72° C.; melting point analysis in 0.1° C. steps). Quantification of target gene expression is performed using a mathematical model by Pfaffl (Pfaffl, Nucleic Acids Res. 29, e45 (2001)). The expression of the target molecule is normalized to the expression of β-2 microglobulin.\nPAPC is oxidized by exposure of the dry lipid to air for 72 h to generate OxPAPC. PAPC dried to a thin film on a glass support is irradiated with UVA-1 with 160 J/cm^2 to generate UV-PAPC. For treatment with singlet oxygen all lipids are vortexed in PBS containing 20 μM Rose Bengal and irradiated with 10 J/cm^2 UVA-1 (FIGS. 5 A,B) or under a commercial 35 W halogen lamp at a distance of 30 cm for 30 minutes (FIG. 5 C). The extent of oxidation was monitored by ESI-MS as described previously (Watson, J. Biol. Chem. 272, 13597-13607 (1997)). The UVA-1 irradiated lipids are solubilized, emulsified or suspended in the respective growth medium before skin cells or the skin equivalent are treated.\nHuman neonatal skin fibroblasts (FB) are obtained from Cascade Biologics (Portland, Oreg.) and grown in Dulbecco's modified Eagle's medium, Gibco (Gaithersburg, Md.) supplemented with 10% fetal calf serum (FCS) and penicillin/streptomycin (1000 U per ml, Gibco) to sub-confluence.\nFibroblasts are treated with autoxidized PAPC, UVA-1 treated PAPC or UVA-1 untreated PAPC (100 μg/ml) as described in Example 1. Total RNA is isolated after 4 hours from treated cells and untreated control cells.\nRelative expression of HO-1 mRNA in dermal fibroblasts is determined 4 h after stimulation with lipids or extracts as specified above using quantitative real-time PCR (qPCR). Normalization is standardized by comparison to the expression of the housekeeping gene beta-2-microglobulin (B2M) as described in Example 1.\nFibroblasts are treated with lipids or extract as described in Example 1 relating to treatment with oxPAPC. Total RNA is isolated 4 h after stimulation with 100 μg/ml of lipids or extract."}, "[1]": {"details": "TLC fractions of OxPAPC and synthetic phospholipids (FIG. 2)"}, "[2]": {"details": "lipid not irradiated with UVA-1 in the presence of RB (FIG. 5B)"}}, "data": [{"compound": "1-palmitoyl-2-(epoxyisoprostane E2)-sn-glycero-3-phosphorylcholine [PEIPC]", "values": [{"measurement": "HO-1 expression", "setting": "HO-1", "result": "strong inducer of HO-1 expression"}]}, {"compound": "CCCCCCCCCCCCCC(=O)OC[C@H](COP(=O)([O-])OCC[N+](C)(C)C)OC(=O)CCCCCCCCCCCCC", "note": "[DMPC, di-myristoyl-phosphorylcholine]", "values": [{"measurement": "HO-1 mRNA expression relative to non-treated control cells", "setting": "Heme Oxygenase 1 (HO-1); [1]", "result": "failed to induce HO-1 expression"}]}, {"compound": "CCCCCCCCCCCCCCCC(=O)OC[C@@H](O)COP(=O)([O-])OCC[N+](C)(C)C", "note": "[LysoPC, 1-palmitoyl-2-lyso-sn-glycero-3-phosphorylcholine]", "values": [{"measurement": "HO-1 mRNA expression relative to non-treated control cells", "setting": "Heme Oxygenase 1 (HO-1); [1]", "result": "failed to induce HO-1 expression"}]}, {"compound": "CCCCCCCCCCCCCCCC(=O)OC[C@H](COP(=O)([O-])OCC[N+](C)(C)C)OC(=O)CCCC(=O)O", "note": "[PGPC, 1-palmitoyl-2-glutaroyl-sn-glycero-3-phosphorylcholine]", "values": [{"measurement": "HO-1 mRNA expression relative to non-treated control cells", "setting": "Heme Oxygenase 1 (HO-1); [1]", "result": "failed to induce HO-1 expression"}]}, {"compound": "CCCCC/C=C\\C/C=C\\CCCCCCCC(=O)O[C@H](COC(=O)CCCCCCCCCCCCCCC)COP(=O)([O-])OCC[N+](C)(C)C", "note": "[PLPC, 1-palmitoyl-2-linoleyl-sn-3-glycerophosphorylcholine]", "values": [{"measurement": "HO-1 mRNA expression relative to non-treated control cells", "setting": "Heme Oxygenase 1 (HO-1); [2]", "result": "did not induce Heme Oxygenase 1 (HO-1) mRNA expression"}]}, {"compound": "CCCCCCCC/C=C\\CCCCCCCC(=O)O[C@H](COC(=O)CCCCCCCCCCCCCCC)COP(=O)([O-])OCC[N+](C)(C)C", "note": "[POPC, 1-palmitoyl-2-oleoyl-sn-3-glycerophosphorylcholine]", "values": [{"measurement": "HO-1 mRNA expression relative to non-treated control cells", "setting": "Heme Oxygenase 1 (HO-1); [2]", "result": "did not induce Heme Oxygenase 1 (HO-1) mRNA expression"}]}, {"compound": "CCCCCCCCCCCCCCCC(=O)OC[C@H](COP(=O)(O)OCC[N+](C)(C)C)OC(=O)CCCC=O", "note": "[POVPC, 1-palmitoyl-2-(5-oxovaleroyl)-sn-glycero-3-phosphorylcholine]", "values": [{"measurement": "HO-1 mRNA expression relative to non-treated control cells", "setting": "Heme Oxygenase 1 (HO-1); [1]", "result": "failed to induce HO-1 expression"}]}, {"compound": "c1ccc(P(c2ccccc2)c2ccccc2)cc1", "note": "[TPP, triphenylphosphine]", "values": [{"measurement": "Effect on capacity of OxPAPC to induce HO-1 expression", "setting": "Heme Oxygenase 1 (HO-1); OxPAPC treated with triphenylphosphine (not shown)", "result": "only slightly reduced"}]}, {"compound": "O=C1O[C@H]([C@@H](O)CO)C(O)=C1O", "note": "[vitamin C]", "values": [{"measurement": "Effect on OxPAPC-mediated HO-1 induction", "setting": "Heme Oxygenase 1 (HO-1)", "result": "did not significantly reduce"}]}, {"compound": "CC1=C(/C=C/C(C)=C/C=C/C(C)=C/C=C/C=C(C)/C=C/C=C(C)/C=C/C2=C(C)CCCC2(C)C)C(C)(C)CCC1", "note": "[β-carotene]", "values": [{"measurement": "Effect on OxPAPC-mediated HO-1 induction", "setting": "Heme Oxygenase 1 (HO-1)", "result": "did not significantly reduce"}]}, {"compound": "vitamin E", "values": [{"measurement": "Effect on OxPAPC-mediated HO-1 induction", "setting": "Heme Oxygenase 1 (HO-1)", "result": "did not significantly reduce"}]}]}
